These results are taken from paper PMC5459853, “Cathepsin S inhibition combines control of systemic and peripheral pathomechanisms of autoimmune tissue injury” (Scientific Reports, 2017).

A word on the IC50: it is the concentration that gives 50% inhibition. For orientation: EC50 means the midpoint of the concentration-response curve.

For data set [1] the following is noted: extensive screening studies in mice, rats, monkeys and humans preceding clinical trial NCT01701985; cited from earlier work.
Data set [2] has as its target T1, Human Cat-F (Homo sapiens, UniProt Q9UBX1).
T1 sequence (Q9UBX1 271-484): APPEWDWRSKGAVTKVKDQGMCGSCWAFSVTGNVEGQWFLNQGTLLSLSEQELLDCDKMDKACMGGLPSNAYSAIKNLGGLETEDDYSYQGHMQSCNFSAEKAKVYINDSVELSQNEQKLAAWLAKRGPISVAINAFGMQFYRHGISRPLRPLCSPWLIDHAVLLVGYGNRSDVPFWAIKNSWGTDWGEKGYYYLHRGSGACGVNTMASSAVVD
The data set is described as follows: Enzymatic isoform-selectivity assay, Cat-F. Format: biochemical. As for the experimental part:
(§1) RO5459072 was provided by F. Hoffmann-La Roche, Ltd., Basel, Switzerland. It is a competitive inhibitor of the active site of Cat-S and its nitrile function allows covalent reversible inhibition of Cat-S. The synthesis of RO5459072 has been described in WO 2010121918 and WO 2013068434. Recombinant cathepsins were produced in-house or were purchased from commercial vendors. Initial enzymatic assays to determine isoform-selectivity in vitro were performed as previously described, [23]. […] For this the Cat-S-dependent hydrolysis of the fluorogenic substrate Z-Phe-Arg-AMC (Sigma Aldrich) was followed at various inhibitor concentrations. The active fraction of Cat-S was detemined as 70% with a HPLC assay measuring modification of Cat-S with the covalent inhibitor LHVS. The buffer (100 mM potassium phosphate, 50 mM NaCl, 5 mM EDTA, 5 mM TCEP, pH 6) was thoroughly degassed prior to perfoming measurements to prevent oxidation of the catalytic cystein residue by dissolved oxygen. For the Ki-determination the substrate was employed at 10 µM = KM. All kinetic measurements were performad on a SFM-3000 stopped-flow instrument (Bio-Logic Science Instruments) and data were analyzed with GraphPad Prism v5.

In data set [3] the test system is diversity panel consisting of nearly 100 receptor binding and enzymatic assays. The data set is described as follows: Diversity panel of receptor binding and enzymatic assays. Particulars: 10 µM concentration; data not shown.
The target in data set [4] is Human Cat-S (Homo sapiens, UniProt P25774). Briefly: Enzymatic isoform-selectivity assay, human Cat-S. The following applies: read-out: apparent IC50, human Cat-S. In kind it is biochemical. The procedure:
as §1

Data set [5] concerns the target T2, Cat-S in human purified B-cells (Homo sapiens, UniProt P25774).
T2 construct: Human B-cells were isolated from whole blood; endogenous in cells; host or cells: primary human CD19+ B cells from whole blood of healthy volunteers
Briefly: lip10 (p10) accumulation assay in human purified B-cells (p10 ELISA). In kind it is cell-based. The procedure:
Human B-cells were isolated from whole blood using the Whole Blood CD19 Microbeads (Cat#130-090-880, Milteny) with the Whole Blood Column Kit (130-093-545, Milteny) according to the instruction leaflet. Isolated B-cells were adjusted to a cell density of 1 × 10^6 cells/ml in RPMI medium containing 10% FCS and 0.05 mM β-Mercaptoethanol (media and supplements are from Gibco). For each condition 100 µl of cell suspension was transferred into one well of a 96 well cell culture plate, respectively. For detection of p10, cells were treated with different concentrations of RO5459072 for 16 h in a cell culture incubator (37 °C; 5% CO2). Afterwards cells were lysed by adding 100 µl 2x NP-40 lysis buffer (20 mM Tris pH 8.0; 137 mM NaCl; 10% glycerol; 1% NP-40; 2 mM EDTA) containing HALT Protease inhibitor (Cat#78429, Pierce) for 30 min on ice. Before detection of accumulated p10-MHC-II complexes, interfering Ii-MHC-II associates were removed from the cell lysates. […] The CD74-18/3 antibody detects uncleaved invariant chain MHC-II complexes only. Afterwards p10-MHC-II complexes were analyzed by ELISA. For this purpose black Maxisorp plates from NUNC have been coated o/n with PIN.1 (5 µg/ml) from abcam (Cat#ab22603). The next day plates were blocked with blocking buffer for 1 h at 37 °C. Lysates containing 25,000 B-cells per condition were transferred to each well of the ELISA plate respectively and incubated together with the secondary antibody CD74-3/5-Biotin (15 ng/ml) o/n at 4 °C on a shaker. For signal amplification samples were incubated for 30 min with High Sensitive Streptavidin-HRP, 50 ng/ml (Cat#21134, Pierce). The amount of p10 was detected after 30 min of incubation with the QuantaBluTM Fluorogenic Substrate (Cat#15162, Pierce) at 325 nm excitation and 420 nm emission. In between each procedure of the ELISA assay the plates were washed twice with PBS−/− containing 0.05% TWEEN-20.
Supplementary figure 1. Biochemical and pharmacological profile of R05459072. (A)
Upregulation of invariant chain p10 levels in human B-cells was estimated by p10 ELISA, upon
treatment with increasing concentration of RO5459072.
upregulation in B-cells derived from 6 healthy volunteers. […]

Structures are written as SMILES. Like-named read-outs stand apart in the source and are kept apart here. Some results are limits rather than exact numbers.

T2 sequence (P25774 115-331): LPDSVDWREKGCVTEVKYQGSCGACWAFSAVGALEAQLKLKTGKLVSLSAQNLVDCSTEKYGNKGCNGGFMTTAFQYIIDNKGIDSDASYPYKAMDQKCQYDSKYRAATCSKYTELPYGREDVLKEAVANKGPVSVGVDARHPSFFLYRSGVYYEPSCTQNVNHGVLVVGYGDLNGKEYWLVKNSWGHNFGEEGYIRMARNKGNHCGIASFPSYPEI
Sequence of Human Cat-S (P25774 115-331): as above

Turning to `Cn1cc(-c2ccc(S(=O)(=O)[C@@H]3C[C@@H](C(=O)NC4(C#N)CC4)N(C(=O)C4(C(F)(F)F)CC4)C3)c(C(F)(F)F)c2)cn1` [RO5459072], the drug safety signals result in data set [1] was “did not show any signals regarding drug safety”. For the same compound, the IC50 in data set [2] is > 1000 nM; in data set [4], 0.1 nM. The “IC50, Human Cat-F” value in data set [2] is reported as “No sub-micro molar inhibition”. Moreover, the “inhibition on diversity panel” value in data set [3] was ≤ 30%. Also, the EC50 turned out to be 15.8 nM in data set [5] (average of 6 healthy volunteers, 16 h treatment, read-out: EC50 of lip10 (p10) induction in human B-cells, average); 26.4 nM in data set [5] (donor D1, read-out: EC50 of p10 upregulation in human B-cells, donor D1); 15.8 nM in data set [5] (donor D2, read-out: EC50 of p10 upregulation in human B-cells, donor D2); 19.1 nM in data set [5] (donor D3, read-out: EC50 of p10 upregulation in human B-cells, donor D3); 9.4 nM in data set [5] (donor D4, read-out: EC50 of p10 upregulation in human B-cells, donor D4); 12.6 nM in data set [5] (donor D5, read-out: EC50 of p10 upregulation in human B-cells, donor D5). The EC50 in data set [5] (donor D6, read-out: EC50 of p10 upregulation in human B-cells, donor D6) worked out at 11.5 nM.
